Legend:
HH cells = assay: MTS cell viability assay, HH; type: cell-based; settings: Homo sapiens, 72 hr, read-out: HH, IG50, MTS
Experimental: The MTS cell viability assay was used to determine the potency of proliferation inhibitor with. MTS measures mitochondrial dehydrogenase activity and serves as surrogate readout for the number of viable cells. The protocol described below is based upon the “CellTiter 96 Aqueous Non-Radioactive Cell Proliferation Assay” sold by Promega (Technical Bulletin No. 169).
(§1) For MTS assay, cells were plated in 96-well plates at 2000 cells per well and incubated in the presence of compounds for 72 hr. MTS was added to each well as instructed by manufacture (Promega) and plates were incubated for 4 h at 37° C. The absorbance of each well was measured at 490 nm using a microplate reader.

HCT-116 cells = assay: MTS cell viability assay, HCT-116; type: cell-based; settings: Homo sapiens; HCT-116, 72 hr; read-out: HCT-116, IG50, MTS
Experimental: (§2) The MTS cell viability assay was used to determine the potency of proliferation inhibitor with. MTS measures mitochondrial dehydrogenase activity and serves as surrogate readout for the number of viable cells.
as §1

HDAC4 = target: T1, HDAC4 (Homo sapiens, UniProt P56524); assay: HDAC isoform assay, HDAC4; type: biochemical; settings: substrate KI-177; read-out: HDAC4, IC50, ELISA (KI-177)
T1 construct: purchased BioMol

HDAC1 = target: T2, HDAC1 (Homo sapiens, UniProt Q13547); assay: HDAC-1 immunocapture fluorescent biochemical assay (HeLa lysate); settings: HDAC1 immunocaptured from HeLa extract
T2 construct: cell extract containing HDAC (HeLa in these experiments); endogenous in cells; host or cells: HeLa cell extract
Experimental: The HDAC-1 assay represents a novel immunocapture assay procedure. […] The HDAC1 is captured on a protein A coated plate using HDAC1 specific antibody, and is then allowed to react with the substrate.
This assay in performed in four general steps. In the first step (FIG. 1A), cell extract containing HDAC (HeLa in these experiments) is incubated with (cell signaling) rabbit polyclonal HDAC1 antibody (rabbit IgG antibody is used for background control) to allow binding of the enzyme to the antibody. In the second step, the complexed mixture is added to the protein A covered plate which captures the antibody. In the third step, after washing away unbound proteins, substrate and inhibitor are added and deacetylation is allowed to occur. […] The plate is then read on either Victor or Perkin Elmer Envision system using Umbilliferone filter set.
• A. HeLa extract complexed with HDAC1 antibody working solution (in DPBS):
Compound working solution (in HDAC buffer):
Compounds diluted in assay buffer at 2× Screening concentration. • D. Activator solution:
Trypsin (10 mg/mL) diluted 1:1600 in assay buffer containing 4 μM TSA.
Complexing of extract with antibody was carried out at room temperature for 60 min with rocking. Binding of complexes onto protein A plate was carried out at room temperature for 60 min in 50 μL. Reaction was carried out in […], in the protein A plate for 60 minutes at 37° C. 40 μL of the reaction was moved into white ½ area plate for activation and reading.
• 1. Set PIERCE Protein A plate to block with 150 μof 5% BSA in TB ST for 60 min at room temperature. • 2. […] Dilute complexes further ([…]) by addition of 3.5 mL of PBS (final total volume of 5 mL). • 4. Wash blocked protein A plate prior to complex addition with TBST. • 5. Add 50 μl of diluted complexes to Protein A plate and incubate for 60 min at room temperature. • 6. Wash plate with TB ST. • 7. Add 25 μl of diluted compounds (in HDAC buffer) to each well and incubate for 10 min at room temperature. • 8. […] Move 40 μl of reaction to a white plate and add 20 μl of activator/developer solution, mix thoroughly. • 10. Read plate.

HDAC2 = target: T3, HDAC2 (Homo sapiens, UniProt Q92769); assay: HDAC isoform assay, HDAC2; type: biochemical; settings: substrate KI-177; read-out: HDAC2, IC50, ELISA (KI-177)
T3 construct: purchased BioMol

HDAC3 = target: T4, HDAC3 (Homo sapiens, UniProt O15379); assay: HDAC isoform assay, HDAC3; type: biochemical; settings: substrate KI-177; read-out: HDAC3, IC50, ELISA (KI-177)
T4 construct: purchased BioMol
Experimental: The assay measures the ability of a small molecule to inhibit deacetylation of the substrate. Activator reagent recognizes the substrate only if the lysine has been deacetylated.
This homogeneous assay in performed in the same well without washing steps. The HDAC source, nuclear HeLa extract, is incubated with substrate in the presence of an inhibitor compound. At the end of the reaction time, activator solution, containing Trypsin and TSA, is added to stop the deacetylation reaction, and cleave the amino-coumarin from the deacetylated substrate. The plate is then read on either a Perkin Elmer Victor or Envision system using Umbilliferone filter set. […] The signal is directly proportional to the activity of HDACs and compound inhibition of HDAC is monitored by a decrease in signal.

Hut78 cells = assay: MTS cell viability assay, Hut78; type: cell-based; settings: Homo sapiens; Hut78, 72 hr; read-out: Hut78, IG50, MTS
Experimental: as §2, §1

HDAC6 = target: T5, HDAC6 (Homo sapiens, UniProt Q9UBN7); assay: HDAC isoform assay, HDAC6
T5 sequence (Q9UBN7 1-1215): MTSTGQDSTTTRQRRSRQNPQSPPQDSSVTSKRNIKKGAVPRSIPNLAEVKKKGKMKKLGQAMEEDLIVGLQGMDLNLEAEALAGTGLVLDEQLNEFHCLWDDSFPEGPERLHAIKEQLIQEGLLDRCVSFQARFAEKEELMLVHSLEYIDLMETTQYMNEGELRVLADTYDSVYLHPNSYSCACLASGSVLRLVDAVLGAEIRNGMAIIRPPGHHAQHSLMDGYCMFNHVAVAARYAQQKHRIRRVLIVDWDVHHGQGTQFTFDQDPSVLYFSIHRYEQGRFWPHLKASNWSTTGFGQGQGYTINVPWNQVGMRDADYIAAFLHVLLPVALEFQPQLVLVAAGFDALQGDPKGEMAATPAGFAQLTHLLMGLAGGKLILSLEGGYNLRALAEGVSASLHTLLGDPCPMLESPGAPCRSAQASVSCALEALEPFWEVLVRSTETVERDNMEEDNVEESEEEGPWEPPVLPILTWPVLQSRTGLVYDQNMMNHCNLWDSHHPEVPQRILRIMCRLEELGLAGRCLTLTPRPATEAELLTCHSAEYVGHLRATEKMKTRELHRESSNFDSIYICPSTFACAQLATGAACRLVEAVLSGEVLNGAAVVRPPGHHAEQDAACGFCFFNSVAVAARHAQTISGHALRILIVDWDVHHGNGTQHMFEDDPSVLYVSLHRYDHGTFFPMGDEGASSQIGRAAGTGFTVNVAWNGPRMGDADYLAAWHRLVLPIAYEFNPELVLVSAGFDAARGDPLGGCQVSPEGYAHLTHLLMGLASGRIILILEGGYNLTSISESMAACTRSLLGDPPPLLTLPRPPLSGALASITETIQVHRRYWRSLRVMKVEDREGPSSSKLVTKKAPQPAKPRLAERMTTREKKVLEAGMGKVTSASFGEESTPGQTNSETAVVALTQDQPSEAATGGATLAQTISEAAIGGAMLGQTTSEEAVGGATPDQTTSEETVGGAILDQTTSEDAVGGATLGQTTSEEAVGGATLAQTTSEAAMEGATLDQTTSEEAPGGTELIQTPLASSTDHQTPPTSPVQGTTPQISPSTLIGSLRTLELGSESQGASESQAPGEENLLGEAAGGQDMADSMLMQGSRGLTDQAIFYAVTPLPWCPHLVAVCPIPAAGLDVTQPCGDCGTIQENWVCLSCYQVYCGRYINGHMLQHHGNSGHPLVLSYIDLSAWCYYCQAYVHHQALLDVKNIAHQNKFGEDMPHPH

HDAC8 = target: T6, HDAC8 (Homo sapiens, UniProt Q9BY41); assay: HDAC isoform assay, HDAC8
T6 sequence (Q9BY41 1-377): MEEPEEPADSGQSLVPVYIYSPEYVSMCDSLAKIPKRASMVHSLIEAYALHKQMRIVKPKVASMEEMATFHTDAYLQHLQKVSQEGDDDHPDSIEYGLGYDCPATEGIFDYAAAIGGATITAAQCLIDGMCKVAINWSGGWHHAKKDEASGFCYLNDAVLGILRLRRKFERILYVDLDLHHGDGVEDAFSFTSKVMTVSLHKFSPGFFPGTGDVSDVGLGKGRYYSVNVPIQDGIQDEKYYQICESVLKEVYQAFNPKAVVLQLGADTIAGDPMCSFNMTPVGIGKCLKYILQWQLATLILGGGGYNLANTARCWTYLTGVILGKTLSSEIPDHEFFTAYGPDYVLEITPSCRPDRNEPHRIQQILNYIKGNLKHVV

MJ cells = assay: MTS cell viability assay, MJ; type: cell-based; settings: 72 hr, read-out: MJ, IG50, MTS
Experimental: as §2, §1

HDAC5 = HDAC5 (Homo sapiens, UniProt Q9UQL6); assay: HDAC isoform assay, HDAC5
HDAC9 = target: T7, HDAC9 (Homo sapiens, UniProt Q9UKV0); assay: HDAC isoform assay, HDAC9; type: biochemical
T7 construct: purchased BioMol
T7 sequence (Q9UKV0 whole entry, canonical isoform): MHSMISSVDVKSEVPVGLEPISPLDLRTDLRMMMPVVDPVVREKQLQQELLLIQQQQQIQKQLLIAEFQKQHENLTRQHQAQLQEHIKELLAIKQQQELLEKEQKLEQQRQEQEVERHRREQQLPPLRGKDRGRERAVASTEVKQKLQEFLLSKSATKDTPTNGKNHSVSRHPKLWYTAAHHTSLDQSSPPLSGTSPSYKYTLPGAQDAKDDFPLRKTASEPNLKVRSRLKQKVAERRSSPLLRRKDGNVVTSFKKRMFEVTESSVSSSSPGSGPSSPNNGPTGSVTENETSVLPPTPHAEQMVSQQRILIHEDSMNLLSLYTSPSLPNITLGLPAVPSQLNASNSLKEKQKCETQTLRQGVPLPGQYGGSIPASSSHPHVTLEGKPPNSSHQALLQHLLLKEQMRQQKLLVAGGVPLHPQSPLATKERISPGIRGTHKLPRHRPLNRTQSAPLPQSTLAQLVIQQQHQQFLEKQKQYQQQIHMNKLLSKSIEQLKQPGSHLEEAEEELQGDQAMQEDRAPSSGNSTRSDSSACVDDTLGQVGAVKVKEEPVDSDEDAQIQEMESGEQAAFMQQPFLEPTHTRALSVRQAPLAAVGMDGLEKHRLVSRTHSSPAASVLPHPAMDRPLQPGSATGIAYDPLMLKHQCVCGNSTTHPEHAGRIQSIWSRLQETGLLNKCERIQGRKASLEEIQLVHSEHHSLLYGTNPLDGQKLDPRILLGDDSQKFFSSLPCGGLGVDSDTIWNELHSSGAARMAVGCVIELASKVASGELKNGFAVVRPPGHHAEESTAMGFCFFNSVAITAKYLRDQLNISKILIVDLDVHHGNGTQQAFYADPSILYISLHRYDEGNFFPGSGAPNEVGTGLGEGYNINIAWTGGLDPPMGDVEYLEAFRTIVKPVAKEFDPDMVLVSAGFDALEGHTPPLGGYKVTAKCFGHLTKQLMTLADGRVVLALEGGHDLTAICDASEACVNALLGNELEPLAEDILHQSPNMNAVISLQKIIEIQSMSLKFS

T2 sequence (Q13547 whole entry): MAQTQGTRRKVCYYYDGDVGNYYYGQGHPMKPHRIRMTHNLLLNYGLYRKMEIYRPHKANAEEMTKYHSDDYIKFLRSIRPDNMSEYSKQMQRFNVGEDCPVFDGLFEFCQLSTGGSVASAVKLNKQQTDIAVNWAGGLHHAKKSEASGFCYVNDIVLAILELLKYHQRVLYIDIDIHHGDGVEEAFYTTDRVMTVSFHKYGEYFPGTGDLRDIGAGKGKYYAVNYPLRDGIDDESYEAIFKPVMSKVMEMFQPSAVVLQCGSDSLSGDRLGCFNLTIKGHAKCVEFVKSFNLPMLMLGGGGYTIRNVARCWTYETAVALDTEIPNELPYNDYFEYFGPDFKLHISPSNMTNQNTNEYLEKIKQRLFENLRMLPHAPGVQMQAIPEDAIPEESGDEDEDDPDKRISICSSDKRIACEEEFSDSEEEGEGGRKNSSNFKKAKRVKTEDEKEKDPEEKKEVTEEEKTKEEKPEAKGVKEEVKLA
T4 sequence (O15379 whole entry, canonical isoform): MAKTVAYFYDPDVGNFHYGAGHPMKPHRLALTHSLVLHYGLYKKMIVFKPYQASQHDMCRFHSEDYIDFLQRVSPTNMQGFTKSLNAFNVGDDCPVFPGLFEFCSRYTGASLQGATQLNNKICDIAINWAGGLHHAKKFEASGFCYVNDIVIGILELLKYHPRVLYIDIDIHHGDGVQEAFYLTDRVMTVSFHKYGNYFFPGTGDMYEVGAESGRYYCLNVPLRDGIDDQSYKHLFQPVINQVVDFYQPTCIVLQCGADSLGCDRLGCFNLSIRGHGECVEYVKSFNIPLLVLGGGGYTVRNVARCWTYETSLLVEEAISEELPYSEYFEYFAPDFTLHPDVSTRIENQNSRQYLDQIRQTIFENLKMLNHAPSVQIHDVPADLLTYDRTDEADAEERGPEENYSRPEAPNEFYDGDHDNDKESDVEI
T4 sequence (O75376 395-489 partner limits assumed): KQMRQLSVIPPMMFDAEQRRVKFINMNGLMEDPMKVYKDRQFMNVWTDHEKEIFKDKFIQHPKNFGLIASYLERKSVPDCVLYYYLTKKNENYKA
T3 sequence (Q92769 whole entry, canonical isoform): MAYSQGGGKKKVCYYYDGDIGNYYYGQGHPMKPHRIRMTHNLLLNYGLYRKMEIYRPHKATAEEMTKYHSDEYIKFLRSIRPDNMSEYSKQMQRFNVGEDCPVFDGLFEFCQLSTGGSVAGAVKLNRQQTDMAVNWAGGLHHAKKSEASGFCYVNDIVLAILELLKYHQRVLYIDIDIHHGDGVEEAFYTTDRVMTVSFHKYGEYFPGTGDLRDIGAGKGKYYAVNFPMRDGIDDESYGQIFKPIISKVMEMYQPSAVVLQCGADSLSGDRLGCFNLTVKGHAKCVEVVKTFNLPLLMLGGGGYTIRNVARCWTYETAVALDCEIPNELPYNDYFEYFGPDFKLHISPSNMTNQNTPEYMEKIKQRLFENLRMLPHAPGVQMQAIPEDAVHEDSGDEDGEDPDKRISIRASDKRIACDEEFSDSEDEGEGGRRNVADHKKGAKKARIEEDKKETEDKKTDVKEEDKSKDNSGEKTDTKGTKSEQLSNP
T1 sequence (P56524 whole entry, canonical isoform): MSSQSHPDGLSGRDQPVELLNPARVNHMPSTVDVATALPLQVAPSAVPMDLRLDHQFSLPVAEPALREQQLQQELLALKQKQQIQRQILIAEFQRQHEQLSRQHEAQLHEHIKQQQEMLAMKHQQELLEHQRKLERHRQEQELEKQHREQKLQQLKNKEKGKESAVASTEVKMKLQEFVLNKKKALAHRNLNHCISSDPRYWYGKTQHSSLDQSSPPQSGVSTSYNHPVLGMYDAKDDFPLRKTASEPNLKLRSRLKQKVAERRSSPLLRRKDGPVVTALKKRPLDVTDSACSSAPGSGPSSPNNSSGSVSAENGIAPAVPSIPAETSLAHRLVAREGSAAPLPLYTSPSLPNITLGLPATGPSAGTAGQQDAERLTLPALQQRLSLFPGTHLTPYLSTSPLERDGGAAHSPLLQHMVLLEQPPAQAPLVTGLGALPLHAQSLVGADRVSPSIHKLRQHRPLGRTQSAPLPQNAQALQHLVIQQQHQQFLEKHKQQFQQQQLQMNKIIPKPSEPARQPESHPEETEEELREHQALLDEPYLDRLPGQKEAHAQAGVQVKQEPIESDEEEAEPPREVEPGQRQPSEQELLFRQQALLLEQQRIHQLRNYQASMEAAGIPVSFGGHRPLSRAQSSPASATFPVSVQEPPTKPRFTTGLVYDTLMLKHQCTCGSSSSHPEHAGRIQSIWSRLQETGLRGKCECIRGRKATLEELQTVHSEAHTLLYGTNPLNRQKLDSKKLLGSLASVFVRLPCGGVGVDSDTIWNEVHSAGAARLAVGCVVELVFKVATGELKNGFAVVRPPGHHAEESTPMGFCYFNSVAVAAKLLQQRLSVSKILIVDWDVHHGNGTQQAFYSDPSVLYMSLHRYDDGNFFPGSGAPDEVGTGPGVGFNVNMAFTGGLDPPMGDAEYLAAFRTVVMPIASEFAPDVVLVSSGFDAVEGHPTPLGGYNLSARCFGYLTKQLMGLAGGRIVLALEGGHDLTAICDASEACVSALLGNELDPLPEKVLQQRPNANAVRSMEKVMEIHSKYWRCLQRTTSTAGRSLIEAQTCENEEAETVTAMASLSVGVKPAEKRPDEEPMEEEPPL
Chain of HDAC5 (Q9UQL6 whole entry, canonical isoform): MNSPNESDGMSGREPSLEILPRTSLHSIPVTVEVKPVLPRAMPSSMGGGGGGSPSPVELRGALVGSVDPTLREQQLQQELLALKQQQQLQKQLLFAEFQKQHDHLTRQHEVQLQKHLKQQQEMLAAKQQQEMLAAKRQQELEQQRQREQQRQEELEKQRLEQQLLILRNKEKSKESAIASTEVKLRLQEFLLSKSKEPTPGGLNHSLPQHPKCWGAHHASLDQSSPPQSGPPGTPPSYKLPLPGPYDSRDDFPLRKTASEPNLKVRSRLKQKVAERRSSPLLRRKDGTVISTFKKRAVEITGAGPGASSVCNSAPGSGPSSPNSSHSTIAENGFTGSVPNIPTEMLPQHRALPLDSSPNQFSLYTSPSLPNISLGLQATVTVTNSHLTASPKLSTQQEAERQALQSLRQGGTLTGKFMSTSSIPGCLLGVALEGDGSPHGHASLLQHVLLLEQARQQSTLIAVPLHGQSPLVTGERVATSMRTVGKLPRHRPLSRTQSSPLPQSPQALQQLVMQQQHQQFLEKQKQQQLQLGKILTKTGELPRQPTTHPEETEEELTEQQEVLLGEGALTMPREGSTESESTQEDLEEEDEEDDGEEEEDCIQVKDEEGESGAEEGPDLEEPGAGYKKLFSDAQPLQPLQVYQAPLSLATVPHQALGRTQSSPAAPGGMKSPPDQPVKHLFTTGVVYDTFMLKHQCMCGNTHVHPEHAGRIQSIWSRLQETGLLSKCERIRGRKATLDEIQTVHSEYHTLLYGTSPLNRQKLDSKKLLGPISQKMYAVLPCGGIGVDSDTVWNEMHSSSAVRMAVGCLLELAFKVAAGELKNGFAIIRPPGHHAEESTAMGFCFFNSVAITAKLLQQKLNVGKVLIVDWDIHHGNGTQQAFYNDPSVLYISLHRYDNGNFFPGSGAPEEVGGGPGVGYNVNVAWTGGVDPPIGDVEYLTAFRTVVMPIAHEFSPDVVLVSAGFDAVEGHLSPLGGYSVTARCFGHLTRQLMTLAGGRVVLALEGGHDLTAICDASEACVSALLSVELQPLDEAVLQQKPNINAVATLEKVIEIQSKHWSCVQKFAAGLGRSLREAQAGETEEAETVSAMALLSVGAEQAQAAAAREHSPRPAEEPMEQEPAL

**Q.** With `O=C(CCC1CCN(C(=O)c2cn3c4c(cccc24)CCC3)CC1)NO` [compound 18, 3-[1-(5,6-dihydro-4H-pyrrolo[3,2,1-ij]quinolin-1-ylcarbonyl)piperidin-4-yl]-N-hydroxypropanamide] as the molecule, how does the IC50 (HH cells) read?
**A.** 186 nM

**Q.** And the IC50 (HCT-116 cells)?
**A.** 1140 nM

**Q.** And the IC50 (HDAC4)?
**A.** 69.1 nM

**Q.** What about the IC50 (HDAC1) of the same molecule?
**A.** 35.7 nM

**Q.** What about the IC50 (HDAC2) of the same molecule?
**A.** 10000 nM

**Q.** What about the melting point of the same molecule?
**A.** 110 to 113 °C

**Q.** And the IC50 (HDAC3)?
**A.** 29.8 nM

**Q.** What about the IC50 (Hut78 cells) of the same molecule?
**A.** 987 nM

**Q.** And the IC50 (HDAC6)?
**A.** 144 nM

**Q.** And the IC50 (HDAC8)?
**A.** 4970 nM

**Q.** And the IC50 (MJ cells)?
**A.** 390 nM

**Q.** What about the IC50 (HDAC5) of the same molecule?
**A.** 91.5 nM

**Q.** And the IC50 (HDAC9)?
**A.** 535 nM

From US20100261710A1, “HDAC Inhibitors” (ARQULE, INC., priority 2007, published 2010)
